# PubChem BioAssay (NCI)
#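 These data come from cells grown in 96-well plates and exposed to compound for 48 hours at five concentrations. GI50 is the concentration that inhibits growth by half. TGI: total growth inhibition.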 Where a SMILES comes first, the peptide text is derived from it. The star is where a group is joined. Cbz = O=C(OCc1ccccc1)*; NHNH2 = NN*
# Legend:
# Assay in all cases: NCI-60 cell line screen, 48 h
# [1] = tested on: HCT-15 colon
# [2] = tested on: MDA-MB-231 breast
# [3] = tested on: NCI-H460 lung
# [4] = tested on: OVCAR-5 ovarian
# [5] = tested on: SF-539 CNS
# [6] = tested on: SK-OV-3 ovarian
# [7] = tested on: T-47D breast
# [8] = tested on: U251 CNS
# [9] = tested on: UACC-257 melanoma
# [10] = tested on: UACC-62 melanoma
Structure (SMILES),TGI [1],TGI [2],TGI [3],TGI [4],TGI [5],TGI [6],TGI [7],TGI [8],TGI [9],TGI [10],GI50 [1],GI50 [2],GI50 [3],GI50 [4],GI50 [5],GI50 [6],GI50 [7],GI50 [8],GI50 [9],GI50 [10]
CC1(C)C=C(S(=O)(=O)c2ccccc2)Oc2ccccc2O1,> 100 µM,> 100 µM,> 100 µM,> 100 µM,> 100 µM,> 100 µM,96.4 µM,> 100 µM,> 100 µM,> 100 µM,–,–,–,–,–,–,–,–,–,–
CCC(C)C(=O)OC1CC2(C)C(c3ccoc3)OC(=O)CC23OC2(C)OC34C(OC(=O)C(C)C)C3(O)C(OC(=O)C5(C)OC5C)C5(C)CC3(O)C(C)(C5CC(=O)OC)C14O2 (stereo not given),> 100 µM,> 100 µM,> 100 µM,> 100 µM,79.6 µM,> 100 µM,> 100 µM,> 100 µM,> 100 µM,> 100 µM,–,–,–,–,–,–,–,–,–,–
FC(F)(F)c1ccc2nc3n(c2c1)C(c1c(Cl)cccc1Cl)SC3 (stereo not given),29.6 µM,37.7 µM,35.6 µM,30.4 µM,33.1 µM,27.9 µM,26.9 µM,32.6 µM,29.3 µM,28.6 µM,–,–,–,–,–,–,–,–,–,–
Brc1ccc2c(-c3csc(-c4c[nH]c5ccc(Br)cc45)n3)c[nH]c2c1,14.5 µM,> 24.6 µM,6.89 µM,7.54 µM,15.1 µM,24.2 µM,21.3 µM,16.5 µM,23.1 µM,9.2 µM,–,–,–,–,–,–,–,–,–,–
CCOc1cc(-c2nc3ccccn3c2/N=C/c2cc(Br)ccc2O)ccc1O,> 100 µM,> 100 µM,> 100 µM,> 100 µM,> 100 µM,92.7 µM,22.4 µM,40.2 µM,53.5 µM,57 µM,–,–,–,–,–,–,–,–,–,–
CCOn1c(C2(CC3CCN(C(=O)c4ccccc4)CC3)OCCO2)cc2ccccc21,42.3 µM,30 µM,27.1 µM,37.4 µM,68.1 µM,45.3 µM,56.2 µM,29.9 µM,23 µM,23.4 µM,–,–,–,–,–,–,–,–,–,–
CN(C)CCn1c(=O)c2ccc(NCCCN(C)CCCNc3ccc4c(=O)n(CCN(C)C)c(=O)n5c6ccc([N+](=O)[O-])cc6c(=O)c3c45)c3c(=O)c4cc([N+](=O)[O-])ccc4n(c1=O)c23,0.542 µM,0.125 µM,0.12 µM,1.1 µM,0.851 µM,0.886 µM,> 100 µM,0.124 µM,2.13 µM,0.318 µM,–,–,–,–,–,–,–,–,–,–
NC(=O)C(=CNC(=S)c1ccncc1)C(N)=O,> 100 µM,> 100 µM,> 100 µM,> 100 µM,> 100 µM,> 100 µM,> 100 µM,> 100 µM,> 100 µM,> 100 µM,–,–,–,–,–,–,–,–,–,–
Cn1c([O-])nc(-n2cc[n+](C)c2)cc1=O,> 100 µM,> 100 µM,> 100 µM,> 100 µM,> 100 µM,> 100 µM,> 100 µM,> 100 µM,> 100 µM,> 100 µM,–,–,–,–,–,–,–,–,–,–
Cc1nc(C)c(Cc2ccccc2)o1,> 100 µM,> 100 µM,> 100 µM,> 100 µM,> 100 µM,> 100 µM,> 100 µM,> 100 µM,> 100 µM,> 100 µM,–,–,–,–,–,–,–,–,–,–
COC(=O)c1ccc(C=Nc2ccc(S(N)(=O)=O)cc2)cc1,> 100 µM,> 100 µM,> 100 µM,> 100 µM,> 100 µM,> 100 µM,> 100 µM,> 100 µM,> 100 µM,> 100 µM,–,–,–,–,–,–,–,–,–,–
COC(=O)CC(NC(=O)OCc1ccccc1)C(=O)NC(CC(=O)OC)C(=O)NC(CC(=O)OC)C(=O)NC(CC(=O)OC)C(=O)NC(CC(=O)OC)C(=O)NC(CC(=O)OC)C(=O)NN (stereo not given) (Cbz-D(OMe)D(OMe)D(OMe)D(OMe)D(OMe)D(OMe)-NHNH2; configuration not given here),> 100 µM,> 100 µM,> 100 µM,> 100 µM,> 100 µM,> 100 µM,> 100 µM,> 100 µM,> 100 µM,> 100 µM,–,–,–,–,–,–,–,–,–,–
Nc1c(C(=O)c2ccc(Cl)cc2)[nH]c(NCc2ccccc2)c1C(=S)Nc1ccccc1,3.36 µM,3.91 µM,3.49 µM,9.16 µM,13.8 µM,49.8 µM,65.1 µM,3.13 µM,3.26 µM,21 µM,–,–,–,–,–,–,–,–,–,–
CC(=S)N=Cc1c(O)cc(C)oc1=O,> 100 µM,> 100 µM,> 100 µM,> 100 µM,> 100 µM,> 100 µM,> 100 µM,> 100 µM,> 100 µM,> 100 µM,–,–,–,–,–,–,–,–,–,–
Cc1nn(-c2cc(Cl)ccc2[N+](=O)[O-])c(C)c1Cl,> 100 µM,> 100 µM,> 100 µM,> 100 µM,> 100 µM,> 100 µM,> 100 µM,> 100 µM,> 100 µM,> 100 µM,–,–,–,–,–,–,–,–,–,–
O=C(CSc1n[nH]c(=O)[nH]c1=O)NNC(=O)c1cccc2nc3ccccc3nc12,> 100 µM,> 100 µM,> 100 µM,> 100 µM,> 100 µM,> 100 µM,> 100 µM,> 100 µM,> 100 µM,> 100 µM,–,–,–,–,–,–,–,–,–,–
CCOC(=O)/C(C#N)=N\Nc1ccc(-n2c(C)nc3ccccc3c2=O)cc1,> 100 µM,> 100 µM,> 100 µM,> 100 µM,> 100 µM,> 100 µM,> 100 µM,> 100 µM,> 100 µM,> 100 µM,–,–,–,–,–,–,–,–,–,–
Brc1ccc2c(-c3csc(-c4c[nH]c5cc(Br)ccc45)n3)c[nH]c2c1,> 89.9 µM,> 70.6 µM,53.8 µM,> 90.2 µM,63.2 µM,97.4 µM,98.7 µM,32.1 µM,> 100 µM,> 100 µM,–,–,–,–,–,–,–,–,–,–
NC(N)=NS(=O)(=O)c1ccc(NC(=O)c2ccc3nc4ccccc4c(Nc4ccc(S(=O)(=O)N=C(N)N)cc4)c3c2)cc1,> 100 µM,> 100 µM,> 100 µM,> 100 µM,> 100 µM,> 100 µM,> 100 µM,> 100 µM,> 100 µM,> 100 µM,–,–,–,–,–,–,–,–,–,–
COCC1OC(N2C(=O)NC(=O)[C@@H]3C=C4CCCCC4=C[C@@H]32)C(OC)C1OC (stereo not given in full),> 100 µM,> 100 µM,> 100 µM,> 100 µM,> 100 µM,> 100 µM,> 100 µM,> 100 µM,> 100 µM,> 100 µM,–,–,–,–,–,–,–,–,–,–
c1ccc2c3c(c(N4CCOCC4)nc2c1)CCCC3,> 100 µM,> 100 µM,> 100 µM,81.2 µM,61.4 µM,> 100 µM,72.8 µM,> 100 µM,> 100 µM,> 100 µM,–,–,–,–,–,–,–,–,–,–
Brc1cc2nn(-c3ccccc3)nc2c2nonc12,> 100 µM,> 100 µM,> 100 µM,> 100 µM,> 100 µM,> 100 µM,> 100 µM,> 100 µM,> 100 µM,> 100 µM,–,–,–,–,–,–,–,–,–,–
Cc1cc2[nH]c3c(C#N)c4c(c(=O)n3c2cc1C)CCCC4,> 100 µM,> 100 µM,> 100 µM,32.7 µM,> 100 µM,27.1 µM,> 100 µM,> 100 µM,> 100 µM,> 100 µM,–,–,–,–,–,–,–,–,–,–
CNC(=O)N(CCC#N)[C@H]1CCCC[C@@H]1N(C(=O)NC)c1ccccc1,> 100 µM,> 100 µM,> 100 µM,> 100 µM,> 100 µM,> 100 µM,> 100 µM,> 100 µM,> 100 µM,> 100 µM,–,–,–,–,–,–,–,–,–,–
O=c1oc2cc(O)ccc2c(O)c1C(c1ccc(C(c2c(O)c3ccc(O)cc3oc2=O)c2c(O)c3ccc(O)cc3oc2=O)cc1)c1c(O)c2ccc(O)cc2oc1=O,> 100 µM,> 100 µM,> 100 µM,> 100 µM,> 100 µM,> 100 µM,> 100 µM,> 100 µM,> 100 µM,> 100 µM,–,–,–,–,–,–,–,–,–,–
CC(=O)OC/C=C(/C=C/CNC1CCCCC1)OC(C)=O,37 µM,27.9 µM,52.1 µM,29.9 µM,24.2 µM,33.8 µM,36.7 µM,32.9 µM,29.4 µM,33.2 µM,–,–,–,–,–,–,–,–,–,–
N#Cc1c(-c2ccc(F)cc2)nc(N/N=C/c2c[nH]c3ccccc23)nc1N1CCOCC1,4.56 µM,56.4 µM,25.2 µM,74 µM,23 µM,38.9 µM,40 µM,17.7 µM,4.87 µM,27.4 µM,0.784 µM,5.16 µM,3.48 µM,19.5 µM,3.68 µM,8.61 µM,9.16 µM,2.16 µM,2.2 µM,11.4 µM
COc1ccc2c(c1)CN1C(=N2)CSC1c1ccccc1Cl (stereo not given),38.9 µM,67.5 µM,32.7 µM,46.8 µM,32.1 µM,79.2 µM,> 100 µM,59.6 µM,28.8 µM,34.6 µM,–,–,–,–,–,–,–,–,–,–
Cc1cc2ncc3c(=O)n(NS(=O)(=O)c4ccc(N)cc4)ccc3n2n1,> 100 µM,> 100 µM,> 100 µM,> 100 µM,> 100 µM,> 100 µM,> 100 µM,> 100 µM,> 100 µM,> 100 µM,–,–,–,–,–,–,–,–,–,–
